From ChEMBL document CHEMBL1140514, “Some new acyclic nucleotide analogues as antiviral prodrugs: synthesis and bioactivities in vitro” (Bioorg Med Chem Lett, 2007) come the findings set out here.

In one data set the test system is Hepatitis B virus. Put plainly: Antiviral activity against Hepatitis B virus infected human HepG2 cells after 9 days by MTT assay. It is filed as functional, organism-based. The settings on record: HepG2, 216 h. For orientation: Tetrazolium assays rely on reduction of a dye to a coloured formazan, in cell work by metabolically active cells.
The subject of data set [1] is Human immunodeficiency virus 1. Put plainly: Antiviral activity against HIV1 3B in MT4 cells after 4 days by MTT assay. Type of data set: functional.
The next data set deals with HepG2. Put plainly: Cytotoxicity against human HepG2 cells after 9 days by MTT assay. It is filed as functional, cell-based. As to conditions: HepG2, 216 h.
A short description of data set [2]: Therapeutic index, Ratio of TC50 for human HepG2 cells to IC50 for HBV-infected human HepG2 cells. Type of data set: cell-based. The settings on record: HepG2 cells (TC50) and HBV-infected HepG2 cells (IC50).
Data set [3] is described as follows: Cytotoxicity against MT4 cells at 10 ug/ml after 4 days by MTT assay. Type of data set: cell-based. As to conditions: human, read-out: Inhibition.

pIC50: −log10 of the molar value.

One may read the pIC50 as the IC50 on a negative log10 scale, so that one unit is a factor of ten. A low value points to a high IC50. In the case of `Nc1ncnc2c1ncn2CCOCP(=O)(O)O` [ADEFOVIR], the pIC50 in the data set with Hepatitis B virus was 4.38.

As for `Nc1ncnc2c1ncn2CCOCP(=O)(OCOC(=O)OC1CCCC1)OCOC(=O)OC1CCCC1.O=C(O)/C=C/C(=O)O`, the pIC50 in the data set with Hepatitis B virus was 5.61; in the data set on HepG2, 5.45. The TC50 in data set [1] came out at 22.1 µM.

For `Nc1ncnc2c1ncn2CCOCP(=O)(O)OCOC(=O)OCc1ccccc1.O=C(O)/C=C/C(=O)O`, the selectivity ratio in data set [2] stood at 13.7. In addition, the values for the pIC50 with Hepatitis B virus and in the data set on HepG2 were 4.37 and < 4.52, respectively. For the same compound, the TC50 in data set [1] is 0.59 10^3uM. In addition, the cytotoxicity at 96 h, 10 ug/ml in data set [3] is 9%.

Take `C[C@H](Cn1cnc2c(N)ncnc21)OCP(=O)(OCOC(=O)OC1CCCC1)OCOC(=O)OC1CCCC1.O=C(O)/C=C/C(=O)O`: the figures for the pIC50 in the data set on Hepatitis B virus and in the data set with HepG2 were 5.14 and < 4.52, respectively. This compound displayed a TC50 in data set [1] of 80.2 µM. Also, in data set [3], the cytotoxicity at 96 h, 10 ug/ml came to 25.5%.

With `C=CCOC(=O)OCOP(=O)(CO[C@H](C)Cn1cnc2c(N)ncnc21)OCOC(=O)OCC=C.O=C(O)/C=C/C(=O)O`, the pIC50 is 5.10 in the data set on Hepatitis B virus and 5.79 with HepG2. In data set [1], this compound returned a TC50 of 30.9 µM.

Take `C=CCOC(=O)OCOP(=O)(O)COCCn1cnc2c(N)ncnc21.O=C(O)/C=C/C(=O)O`: the pIC50 in the data set on Hepatitis B virus was 4.97; in the data set with HepG2 it was 4.63. Besides, in data set [1], the TC50 was 0.67 10^3uM.

On to `C=CCOC(=O)OCOP(=O)(COCCn1cnc2c(N)ncnc21)OCOC(=O)OCC=C.O=C(O)/C=C/C(=O)O`, for which the pIC50 with Hepatitis B virus was 5.09; in the data set with HepG2, < 4.52. The same compound showed a TC50 in data set [1] of 24.6 µM. In addition, the cytotoxicity at 96 h, 10 ug/ml in data set [3] was 22.8%.

On to `C[C@H](Cn1cnc2c(N)ncnc21)OCP(=O)(O)O` [TENOFOVIR ANHYDROUS], for which the selectivity ratio in data set [2] amounted to 31.4. The pIC50 in the data set on Hepatitis B virus was 4.91. In addition, the TC50 in data set [1] was 0.39 10^3uM.

Regarding `CC(C)OC(=O)OCOP(=O)(CO[C@H](C)Cn1cnc2c(N)ncnc21)OCOC(=O)OC(C)C.O=C(O)/C=C/C(=O)O` [TENOFOVIR DISOPROXIL FUMARATE], in data set [2], the selectivity ratio was 10.8. Also, the negative logarithm of the IC50 (pIC50) in the data set on Hepatitis B virus was 5.29; with HepG2, 5.64. Moreover, in data set [1], the TC50 was determined as 55.2 µM.

Compound `Nc1nc(=O)n([C@@H]2CS[C@H](CO)O2)cc1F` [EMTRICITABINE] gave a pIC50 with HepG2 of 4.56.

Take `Nc1ncnc2c1ncn2CCOCP(=O)(OCOC(=O)OC1CCCCC1)OCOC(=O)OC1CCCCC1.O=C(O)/C=C/C(=O)O`: the selectivity ratio in data set [2] is 11.9. For the same compound, the figures for the pIC50 in the data set with Hepatitis B virus and in the data set with HepG2 were 5.27 and 4.64, respectively. Further, the TC50 in data set [1] was 63.2 µM.

Regarding `C[C@H](Cn1cnc2c(N)ncnc21)OCP(=O)(OCOC(=O)OC1CCCCC1)OCOC(=O)OC1CCCCC1.O=C(O)/C=C/C(=O)O`, the selectivity ratio in data set [2] was 15.6. Besides, the pIC50 with Hepatitis B virus was 5.23; in the data set on HepG2, 4.76. Moreover, the TC50 in data set [1] is 92.8 µM.

On to `C[C@H](Cn1cnc2c(N)ncnc21)OCP(=O)(OCOC(=O)OCc1ccccc1)OCOC(=O)OCc1ccccc1.O=C(O)/C=C/C(=O)O`, for which the selectivity ratio in data set [2] was determined as 12.7. The pIC50 in the data set with Hepatitis B virus was 5.26; in the data set on HepG2 it was < 4.52. Moreover, the TC50 in data set [1] was found to be 70.1 µM. Besides, the cytotoxicity at 96 h, 10 ug/ml in data set [3] was 28.1%.

`Nc1ncnc2c1ncn2CCOCP(=O)(OCOC(=O)OCc1ccccc1)OCOC(=O)OCc1ccccc1.O=C(O)/C=C/C(=O)O`: in data set [2], the selectivity ratio was found to be 12.3. In addition, the pIC50 is 5.67 in the data set on Hepatitis B virus and < 4.52 in the data set with HepG2. Further, the TC50 in data set [1] worked out at 26.5 µM. The cytotoxicity at 96 h, 10 ug/ml in data set [3] worked out at 24.9%.
